What all share (type): cell-based, mouse
The test system of assay [1] is K-Ras^G12D MEFs. Description: Uptake of fluorescently labeled dextran or albumin. Particulars: pre-treated 1 h with 250 nM torin 1; 30 min uptake. The protocol:
To characterize how cells derive leucine from extracellular proteins, cellular albumin uptake was investigated using constitutively fluorescent albumin and intracellular albumin proteolysis using a self-quenched albumin that emits fluorescence upon degradation (DQ-BSA) (Reis et al., 1998). […] It was then determined whether lysosomal albumin degradation was required to support growth during leucine starvation. […] Ras GTPases can promote cellular uptake of macromolecules through macropinocytosis (Bar-Sagi and Feramisco, 1986). […] To investigate whether this endocytic pathway contributed to albumin-dependent growth, cells were treated with the Na^+/H^+ exchange inhibitor EIPA, which blocks macropinocytosis but not other endocytic pathways (West et al., 1989).
To distinguish these possibilities, it was first tested whether mTORC1 inhibition increased internalization of extracellular macromolecules. […] It was next examined whether mTORC1 inhibition affected lysosomal degradation of internalized proteins.

Assay [2] concerns K-Ras^G12D MEFs. Description: 14C-leucine labeling of proteins and lipids. Particulars: mean±STDEV (n=3); control cells 364±69. On the procedure: Cells were cultured in full medium containing 0.5 μCi (0.4%) L-[^14C(U)]-Leucine (Perkin Elmer) for 24 h. Total lipid and protein fractions were isolated essentially according to the Blight-Dyer method (Bligh and Dyer, 1959). Protein pellets were resolubilized in 6 M guanidine hydrochloride, then transferred to scintillation fluid. Organic phase-dissolved lipids were transferred to scintillation vials, and after solvent evaporation, resuspended in scintillation fluid. ^14C-leucine content of proteins and lipids was quantified by scintillation counting.

In a further assay the test system is wild type MEFs. Description: Lysosomal degradation of DQ-BSA in wild type MEFs. Particulars: 250 nM torin 1; 6 h DQ-BSA uptake. On the procedure:
For live imaging, medium was supplemented with 0.3 mg/ml DQ Green BSA. 1 h prior to imaging, 50 nM LysoTracker Red and 0.2 μg/ml Hoechst were added. Cells were imaged either immediately after addition of DQ-BSA and torin 1, or after 5-6 h incubation using a Zeiss LSM 5 LIVE.
To further investigate how Ras and mTORC1 signaling regulated lysosomal proteolysis of internalized proteins, the effects of mTORC1 inhibition and K-Ras activation were compared. […] Thus, K-Ras enhances a cell's ability to take up and degrade extracellular proteins. In contrast, whereas mTORC1 specifically restricts their lysosomal degradation.

In assay [3] the test system is Ulk1/2 DKO MEFs expressing K-Ras^G12V. Description: Proliferation of Ulk1/2 DKO MEFs expressing K-Ras^G12V. The settings on record: leucine-free medium containing 3% albumin; 250 nM torin 1. The protocol: K-Ras^G12D MEFs were pre-treated for 1 h with 250 nM torin 1 and then incubated with fluorescently labeled dextran or albumin. Intracellular dextran or albumin was quantified after 30 min uptake. Data are represented as mean±STDEV (n=6 fields of view with >10 cells each). P-values were calculated using a two-tailed unpaired t-test. n.s. not significant. […] Uptake of fluorescently labeled dextran was quantified after 30 min uptake. Data are represented as mean±STDEV (n=8 fields of view with >10 cells each). P-values were calculated using a two-tailed unpaired t-test. n.s. not significant. […] K-Ras^G12D MEFs were pre-treated for 1 h with 250 nM torin 1, then incubated with fluorescently labeled dextran for indicated periods of time. Data are represented as mean±STDEV (n=8 fields of view with >10 cells each). […] Mean fluorescence intensity per cell was determined after 6 h of DQ-BSA uptake. Data are represented as mean±STDEV (n=7 fields of view with >15 cells each). P-values were calculated using a two-tailed unpaired t-test. ***p<0.001, n.s. not significant. […] DQ-BSA fluorescence intensity is represented as mean±STDEV (n=7 fields of view with >20 cells each). P-values were calculated using a two-tailed unpaired t-test. ***p<0.001. […] DQ-BSA fluorescence intensity is represented as mean±STDEV (n=6 fields of view with >30 cells each). P-values were calculated using a two-tailed unpaired t-test. […]

Assay [4] concerns K-Ras^G12D MEFs. Description: Proliferation assay (cell numbers) of K-Ras^G12D MEFs in starvation medium. On the procedure:
Cell culture experiments were performed at 37° C. and 5% CO2 in DMEM/F12 with 10% dialyzed FBS (molecular weight cut-off 10,000; Gemini Biosystems), 100 U/mL penicillin, 100 μg/mL streptomycin, 5 mM glucose and 2 mM glutamine. For proliferation assays, MEFs were plated in complete medium, 5 h later briefly rinsed and then cultured in starvation medium as indicated. For EAA titration experiments, EAAs were supplemented at indicated percentages of 1×MEM amino acid solution (M5550, Sigma). Cancer cell lines were cultured in complete medium for 1 day prior to starvation. Numbers of adherent cells, which are >95% viable as assessed by Trypan Blue exclusion were determined using a Multisizer 4 Coulter Counter (Beckman). For mTOR activation and localization experiments, cells were rinsed and then incubated in EAA starvation medium (DMEM/F12 lacking all amino acids except glutamine) for 1 h, and subsequently placed in medium supplemented with EAAs (1×MEM amino acid solution), albumin (3%, if not stated otherwise) or fresh EAA-free starvation medium for indicated periods of time.

In the case of `CCC(=O)N1CCN(c2ccc(-n3c(=O)ccc4cnc5ccc(-c6cnc7ccccc7c6)cc5c43)cc2C(F)(F)F)CC1` [torin 1], the “cellular uptake of fluorescently labeled dextran or albumin” value in the assay with K-Ras^G12D MEFs [1] is “neither torin 1 nor Raptor knockdown elevated cellular uptake”. Further, the “ratio of protein to lipid incorporation of 14C-leucine label” value with K-Ras^G12D MEFs [2] was found to be 203±27. For the same molecule, the DQ-BSA fluorescence entry in the assay with wild type MEFs is “significant increase”. In addition, the cell proliferation result in assay [3] is reported as “enhanced proliferation”; in the assay with K-Ras^G12D MEFs [4] (3% albumin, EAAs abundant extracellularly, 250 nM torin 1, day 3), “strongly decreased cell proliferation”; with K-Ras^G12D MEFs [4] (3% albumin, low EAA concentrations, 250 nM torin 1, day 3), “significantly improved cell proliferation”; in the assay on K-Ras^G12D MEFs [4] (3% albumin, over a 10-fold range of EAA concentrations, 250 nM torin 1), “only slightly reduced proliferation”; in the assay with K-Ras^G12D MEFs [4] (free leucine provided extracellularly, increasing doses of torin 1, day 3), “decreased with increasing doses”; in the assay on K-Ras^G12D MEFs [4] (leucine-free medium +3% albumin, torin 1 raised from 50 to 300 nM), “progressively improved cell proliferation”. Also, the cell proliferation entry in the assay on K-Ras^G12D MEFs [4] (medium lacking isoleucine, lysine or arginine, 3% albumin, 250 nM torin 1) is listed as “induced cells to robustly proliferate”.

The values are drawn from patent US20210346354A1, “MACROPINOCYTOSIS IN CANCER” (Memorial Sloan-Kettering Cancer Center, priority 2015, published 2021).
